According to ChEMBL document CHEMBL6177997, “Design, Synthesis, and Evaluation of Novel ROCK Inhibitors for Glaucoma Treatment: Insights into In Vitro and In Vivo Efficacy and Safety” (J Med Chem, 2025):
Calls of active or inactive are those of the source. The rule behind the calls is not given here.

Experiments:
HTM [1] = experiment: Inhibition of TGF-beta2 induced alpha-SMA expression in human HTM cells at 1 uM pretreated with compound for 2 hrs followed by TGF-beta2 induction and measured after 24 hrs; format: functional, cell-based; settings: time 26.0 hrs
Oryctolagus cuniculus [2] = species on record: Oryctolagus cuniculus; experiment: Anti-glaucoma activity in methylcellulose-induced acute intraocular hypertensive rabbit model assessed as reduction in intraocular pressure at 0.1 %, TOP measured at 8 hrs; format: functional
Oryctolagus cuniculus [3] = species on record: Oryctolagus cuniculus; experiment: Anti-glaucoma activity in methylcellulose-induced high acute intraocular hypertensive rabbit model assessed as reduction in intraocular pressure at 0.1 %, TOP measured at 4 hrs; format: functional
HTM [4] = experiment: Induction of F-actin depolymerization in human HTM cells at 5 uM incubated for 4 hrs by rhodamine-phalloidin staining based analysis; format: cell-based
HTM [5] = experiment: Induction of morphological changes in human HTM cells assessed as appearance of rounded cells at 45 uM incubated for 10 hrs by light microscopic analysis; format: functional, cell-based
HTM [6] = experiment: Inhibition of TGF-beta2 induced collagen 1A expression in human HTM cells at 1 uM pretreated with compound for 2 hrs followed by TGF-beta2 induction and measured after 24 hrs; format: functional, cell-based; settings: time 26.0 hrs
[7] = Induction of apoptosis in H2O2-induced human HTM cells at 1 uM pretreated with compound for 1 hr followed by H2O2 induction and measured after 2 hrs by Annexin V AF647/PI staining based flow cytometry analysis (reference value: 13.47%); format: functional; settings: time 3 hrs
HTM [8] = experiment: Induction of morphological changes in human HTM cells assessed as appearance of rounded cells at 15 uM incubated for 10 hrs by light microscopic analysis; format: functional, cell-based
Mitochondrial membrane = experiment: Induction of mitochondrial membrane potential in human HTM cells at 1 uM incubated for 24 hrs by JC-1 staining based flow cytometry analysis
HTM [9] = experiment: Inhibition of paxillin expression in human HTM cells at 5 uM; format: functional, cell-based
Oryctolagus cuniculus [10] = species on record: Oryctolagus cuniculus; experiment: Anti-glaucoma activity in methylcellulose-induced acute intraocular hypertensive rabbit model assessed as reduction in intraocular pressure at 0.1 %, TOP measured at 4 hrs; format: functional
[11] = Cytotoxicity against human HTM cells assessed as reduction in cell viability at 45 uM incubated for 24 hrs by MTT assay relative to control; format: toxicity, cell-based
[12] = Toxicity in rabbit assessed as appearance of conjunctival congestion by measuring ocular irritation score at 0.1 % TOP administration on left eye measured after 7 days by draize eye irritation test; format: tissue-based, Oryctolagus cuniculus; settings: in vivo, topical_or_ocular, 168 h, time 7 day
[13] = Toxicity in rabbit assessed as appearance of conjunctival congestion by measuring ocular irritation score at 0.1 % TOP administration on left eye measured on day 4 by draize eye irritation test; format: tissue-based, Oryctolagus cuniculus; settings: in vivo, topical_or_ocular, 96 h, time 4 day
Oryctolagus cuniculus [14] = species on record: Oryctolagus cuniculus; experiment: Anti-glaucoma activity in methylcellulose-induced acute intraocular hypertensive rabbit model assessed as reduction in intraocular pressure at 0.1 %, TOP measured at 2 hrs; format: functional
HTM [15] = experiment: Inhibition of H2O2-induced ROS production in human HTM cells assessed as decrease in green fluorescence at 1 uM preincubated for 1 hrs followed by H2O2 induction for 2 hrs and measured after 30 mins by DCFH-DA based fluorescence microscopic analysis; format: functional, cell-based; settings: time 3.5 hrs
[16] = Cytotoxicity against human HTM cells assessed as reduction in cell viability at 15 uM incubated for 24 hrs by MTT assay relative to control; format: toxicity, cell-based
[17] = target: T1, MAP kinase-interacting serine/threonine-protein kinase 1 (Homo sapiens, UniProt Q9BUB5); experiment: Inhibition of human MNK1 using magnesium acetate as substrate at 1 uM measured after 120 mins in presence of [gamma33P]ATP by scintillation counting method relative to control
Target sequence in this assay (Q9BUB5 whole entry, looked up): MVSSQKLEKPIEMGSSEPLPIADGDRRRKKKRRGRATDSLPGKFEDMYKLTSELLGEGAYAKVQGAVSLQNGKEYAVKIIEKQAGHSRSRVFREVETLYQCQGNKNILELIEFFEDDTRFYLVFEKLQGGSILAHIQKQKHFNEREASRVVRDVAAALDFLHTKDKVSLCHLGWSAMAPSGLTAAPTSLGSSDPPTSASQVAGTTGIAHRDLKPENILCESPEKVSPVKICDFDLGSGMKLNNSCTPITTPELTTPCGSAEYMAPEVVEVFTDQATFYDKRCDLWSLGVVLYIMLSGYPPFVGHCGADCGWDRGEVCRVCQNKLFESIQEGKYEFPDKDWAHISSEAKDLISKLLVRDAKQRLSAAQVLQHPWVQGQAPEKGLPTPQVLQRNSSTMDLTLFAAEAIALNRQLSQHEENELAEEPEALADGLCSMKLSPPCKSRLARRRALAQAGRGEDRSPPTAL

[18] = target: Protein kinase C (PKC) (Homo sapiens) (UniProt O94806+P41743+P17252+P05129+Q05655+P05771+Q05513+Q02156+P24723+Q15139+Q04759); experiment: Inhibition of human PKC using magnesium acetate as substrate at 1 uM measured after 120 mins in presence of [gamma33P]ATP by scintillation counting method relative to control; format: protein assay
HTM [19] = experiment: Inhibition of paxillin expression in human HTM cells at 0.02 to 5 uM; format: functional, cell-based; settings: dose 0.02-5 µM
[20] = target: T1, MAP kinase-interacting serine/threonine-protein kinase 1; experiment: Inhibition of MNK1 (unknown origin) at 5 uM preincubated for 10 mins followed by substrate addition and measured after 60 mins by ADP-glo kinase assay relative to control; settings: time 70.0 min
Target sequence in this assay (Q9BUB5 whole entry, looked up): as above

[21] = Cytotoxicity against human HTM cells assessed as inhibition of cell proliferation at 45 uM incubated for 24 hrs by MTT assay; format: toxicity, cell-based
[22] = Toxicity in rabbit assessed as appearance of conjunctival congestion by measuring ocular irritation score at 0.1 % TOP administration on left eye measured at 7 days by draize eye irritation test; format: tissue-based, Oryctolagus cuniculus; settings: in vivo, topical_or_ocular, 168 h, time 7 day
[23] = target: T2, Rho-associated protein kinase 2 (Homo sapiens, UniProt O75116); experiment: Inhibition of ROCK2 (unknown origin) incubated for 40 mins in presence of ATP by ADP-glo assay
Target sequence in this assay (O75116 whole entry): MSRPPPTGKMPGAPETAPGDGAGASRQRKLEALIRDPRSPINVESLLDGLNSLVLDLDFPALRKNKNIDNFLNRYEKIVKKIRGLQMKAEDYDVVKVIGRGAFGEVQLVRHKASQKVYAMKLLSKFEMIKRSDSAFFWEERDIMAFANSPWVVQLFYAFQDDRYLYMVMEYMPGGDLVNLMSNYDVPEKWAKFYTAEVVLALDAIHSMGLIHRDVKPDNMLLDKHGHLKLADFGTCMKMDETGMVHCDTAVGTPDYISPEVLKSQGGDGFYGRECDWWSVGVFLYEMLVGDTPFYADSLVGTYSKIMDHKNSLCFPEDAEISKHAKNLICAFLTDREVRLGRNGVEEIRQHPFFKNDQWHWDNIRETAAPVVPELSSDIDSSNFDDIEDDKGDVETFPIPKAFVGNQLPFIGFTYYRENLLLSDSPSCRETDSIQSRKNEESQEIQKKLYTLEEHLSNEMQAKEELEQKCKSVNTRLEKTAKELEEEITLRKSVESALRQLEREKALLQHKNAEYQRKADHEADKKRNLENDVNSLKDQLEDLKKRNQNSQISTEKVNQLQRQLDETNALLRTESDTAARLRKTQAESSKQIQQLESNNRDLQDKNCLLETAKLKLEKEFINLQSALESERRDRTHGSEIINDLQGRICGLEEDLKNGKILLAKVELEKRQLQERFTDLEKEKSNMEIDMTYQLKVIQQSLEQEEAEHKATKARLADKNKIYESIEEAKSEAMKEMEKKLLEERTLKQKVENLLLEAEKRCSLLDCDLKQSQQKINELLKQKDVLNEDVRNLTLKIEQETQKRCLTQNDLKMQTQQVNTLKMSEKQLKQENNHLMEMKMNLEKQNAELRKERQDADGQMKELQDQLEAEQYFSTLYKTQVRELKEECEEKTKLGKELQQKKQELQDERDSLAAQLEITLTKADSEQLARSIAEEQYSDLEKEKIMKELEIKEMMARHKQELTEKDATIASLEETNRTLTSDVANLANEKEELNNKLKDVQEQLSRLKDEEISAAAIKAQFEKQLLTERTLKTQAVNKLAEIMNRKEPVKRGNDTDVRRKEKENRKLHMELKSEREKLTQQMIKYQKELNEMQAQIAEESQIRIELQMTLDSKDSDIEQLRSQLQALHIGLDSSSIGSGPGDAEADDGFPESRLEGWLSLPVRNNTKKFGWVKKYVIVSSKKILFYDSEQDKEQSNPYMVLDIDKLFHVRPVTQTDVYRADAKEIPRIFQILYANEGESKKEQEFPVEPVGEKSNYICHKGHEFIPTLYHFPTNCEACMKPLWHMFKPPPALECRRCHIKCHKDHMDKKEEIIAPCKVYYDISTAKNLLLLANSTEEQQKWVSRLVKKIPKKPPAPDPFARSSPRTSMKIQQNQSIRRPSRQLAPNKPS

[24] = target: T2, Rho-associated protein kinase 2; experiment: Inhibition of human ROCK2 using magnesium acetate as substrate at 1 uM measured after 120 mins in presence of [gamma33P]ATP by scintillation counting method relative to control
Target sequence in this assay (O75116 whole entry, looked up): as the sequence (O75116 whole entry) above

[25] = target: MAP kinase-interacting serine/threonine-protein kinase 2 (Homo sapiens) (UniProt Q9HBH9); experiment: Inhibition of human MNK2 using magnesium acetate as substrate at 1 uM measured after 120 mins in presence of [gamma33P]ATP by scintillation counting method relative to control
Sequence of MAP kinase-interacting serine/threonine-protein kinase 2 (Homo sapiens) (Q9HBH9 whole entry, looked up): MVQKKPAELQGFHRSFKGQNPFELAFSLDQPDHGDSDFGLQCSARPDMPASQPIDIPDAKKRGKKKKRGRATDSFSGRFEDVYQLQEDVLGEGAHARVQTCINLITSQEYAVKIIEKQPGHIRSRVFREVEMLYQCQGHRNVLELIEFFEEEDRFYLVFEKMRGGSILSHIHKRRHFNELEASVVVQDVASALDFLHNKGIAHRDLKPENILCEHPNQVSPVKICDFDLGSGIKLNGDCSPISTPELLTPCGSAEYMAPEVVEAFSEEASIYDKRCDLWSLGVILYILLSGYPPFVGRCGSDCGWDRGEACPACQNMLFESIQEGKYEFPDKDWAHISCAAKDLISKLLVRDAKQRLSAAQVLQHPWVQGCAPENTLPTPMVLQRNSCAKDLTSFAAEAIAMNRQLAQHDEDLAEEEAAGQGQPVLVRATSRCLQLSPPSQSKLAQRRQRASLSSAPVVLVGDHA

Homo sapiens [26] = species on record: Homo sapiens; experiment: Inhibition of human PKB using magnesium acetate as substrate at 1 uM measured after 120 mins in presence of [gamma33P]ATP by scintillation counting method relative to control
Homo sapiens [27] = species on record: Homo sapiens; experiment: Inhibition of human PKA using magnesium acetate as substrate at 1 uM measured after 120 mins in presence of [gamma33P]ATP by scintillation counting method relative to control
[28] = target: Serine/threonine-protein kinase SIK2 (Homo sapiens) (UniProt Q9H0K1); experiment: Inhibition of human QIK using magnesium acetate as substrate at 1 uM measured after 120 mins in presence of [gamma33P]ATP by scintillation counting method relative to control
HTM [29] = experiment: Anti-inflammatory activity against human HTM cells assessed as inhibition of H2O2-induced i-NOS secretion; format: functional, cell-based
[30] = target: MAP kinase-interacting serine/threonine-protein kinase 2 (Homo sapiens) (UniProt Q9HBH9); experiment: Inhibition of MNK2 (unknown origin) at 5 uM preincubated for 10 mins followed by substrate addition and measured after 60 mins by ADP-glo kinase assay relative to control; settings: time 70.0 min
HTM [31] = experiment: Induction of morphological changes in human HTM cells at 3 uM incubated for 10 hrs by light microscopic analysis; format: functional, cell-based
HTM [32] = experiment: Anti-inflammatory activity against human HTM cells assessed as inhibition of H2O2-induced IL-6 secretion; format: functional, cell-based
HTM [33] = experiment: Inhibition of cell migration in human HTM cells at 1 uM incubated for 24 to 48 hrs by wound healing assay; format: functional, cell-based; settings: time 24-48 hrs
[34] = target: T3, Rho-associated protein kinase 1 (Homo sapiens, UniProt Q13464); experiment: Inhibition of human ROCK1 using magnesium acetate as substrate at 1 uM measured after 120 mins in presence of [gamma33P]ATP by scintillation counting method relative to control
HTM [35] = experiment: Anti-inflammatory activity against human HTM cells assessed as inhibition of H2O2-induced NF-kappaB secretion; format: functional, cell-based
[36] = target: T3, Rho-associated protein kinase 1; experiment: Inhibition of ROCK1 (unknown origin) incubated for 40 mins in presence of ATP by ADP-glo assay
Target sequence in this assay (Q13464 whole entry): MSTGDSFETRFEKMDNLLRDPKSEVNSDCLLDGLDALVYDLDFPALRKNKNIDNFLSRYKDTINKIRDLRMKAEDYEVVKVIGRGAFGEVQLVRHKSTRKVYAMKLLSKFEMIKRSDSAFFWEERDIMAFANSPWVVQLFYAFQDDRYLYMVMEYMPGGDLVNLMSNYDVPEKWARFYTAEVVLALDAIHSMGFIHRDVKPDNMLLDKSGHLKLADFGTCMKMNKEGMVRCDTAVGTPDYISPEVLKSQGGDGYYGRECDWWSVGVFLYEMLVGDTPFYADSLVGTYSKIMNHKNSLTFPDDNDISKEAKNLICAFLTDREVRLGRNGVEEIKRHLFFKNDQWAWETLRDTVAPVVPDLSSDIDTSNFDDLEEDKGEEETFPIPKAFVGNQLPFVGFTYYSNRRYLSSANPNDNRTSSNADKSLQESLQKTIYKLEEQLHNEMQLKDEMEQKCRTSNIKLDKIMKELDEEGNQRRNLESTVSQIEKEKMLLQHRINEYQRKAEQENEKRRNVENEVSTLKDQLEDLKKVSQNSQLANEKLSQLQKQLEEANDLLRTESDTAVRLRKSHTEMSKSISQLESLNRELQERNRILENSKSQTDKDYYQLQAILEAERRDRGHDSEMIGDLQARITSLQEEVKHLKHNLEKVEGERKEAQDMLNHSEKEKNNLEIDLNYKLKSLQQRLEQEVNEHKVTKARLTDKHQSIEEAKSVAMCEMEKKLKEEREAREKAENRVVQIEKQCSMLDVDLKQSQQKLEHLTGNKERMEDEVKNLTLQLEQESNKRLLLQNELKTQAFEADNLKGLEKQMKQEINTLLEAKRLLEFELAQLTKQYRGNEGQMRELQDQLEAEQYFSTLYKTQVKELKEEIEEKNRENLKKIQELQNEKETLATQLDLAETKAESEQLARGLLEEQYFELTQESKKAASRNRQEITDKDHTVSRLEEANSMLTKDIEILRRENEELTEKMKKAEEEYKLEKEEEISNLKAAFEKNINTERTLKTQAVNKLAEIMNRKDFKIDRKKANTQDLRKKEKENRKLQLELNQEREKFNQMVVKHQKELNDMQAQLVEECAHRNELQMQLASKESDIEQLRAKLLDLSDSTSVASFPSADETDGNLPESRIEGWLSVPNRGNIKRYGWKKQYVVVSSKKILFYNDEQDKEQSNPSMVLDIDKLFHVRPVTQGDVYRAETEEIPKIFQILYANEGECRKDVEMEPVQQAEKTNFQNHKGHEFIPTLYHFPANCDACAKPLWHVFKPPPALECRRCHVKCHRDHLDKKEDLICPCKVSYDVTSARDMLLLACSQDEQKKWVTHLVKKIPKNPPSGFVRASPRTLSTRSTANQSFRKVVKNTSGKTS

[37] = target: Mitogen-activated protein kinase kinase kinase kinase 4 (Homo sapiens) (UniProt O95819); experiment: Inhibition of human HGK using magnesium acetate as substrate at 1 uM measured after 120 mins in presence of [gamma33P]ATP by scintillation counting method relative to control
Sequence of Mitogen-activated protein kinase kinase kinase kinase 4 (Homo sapiens) (O95819 2-1239 limits assumed): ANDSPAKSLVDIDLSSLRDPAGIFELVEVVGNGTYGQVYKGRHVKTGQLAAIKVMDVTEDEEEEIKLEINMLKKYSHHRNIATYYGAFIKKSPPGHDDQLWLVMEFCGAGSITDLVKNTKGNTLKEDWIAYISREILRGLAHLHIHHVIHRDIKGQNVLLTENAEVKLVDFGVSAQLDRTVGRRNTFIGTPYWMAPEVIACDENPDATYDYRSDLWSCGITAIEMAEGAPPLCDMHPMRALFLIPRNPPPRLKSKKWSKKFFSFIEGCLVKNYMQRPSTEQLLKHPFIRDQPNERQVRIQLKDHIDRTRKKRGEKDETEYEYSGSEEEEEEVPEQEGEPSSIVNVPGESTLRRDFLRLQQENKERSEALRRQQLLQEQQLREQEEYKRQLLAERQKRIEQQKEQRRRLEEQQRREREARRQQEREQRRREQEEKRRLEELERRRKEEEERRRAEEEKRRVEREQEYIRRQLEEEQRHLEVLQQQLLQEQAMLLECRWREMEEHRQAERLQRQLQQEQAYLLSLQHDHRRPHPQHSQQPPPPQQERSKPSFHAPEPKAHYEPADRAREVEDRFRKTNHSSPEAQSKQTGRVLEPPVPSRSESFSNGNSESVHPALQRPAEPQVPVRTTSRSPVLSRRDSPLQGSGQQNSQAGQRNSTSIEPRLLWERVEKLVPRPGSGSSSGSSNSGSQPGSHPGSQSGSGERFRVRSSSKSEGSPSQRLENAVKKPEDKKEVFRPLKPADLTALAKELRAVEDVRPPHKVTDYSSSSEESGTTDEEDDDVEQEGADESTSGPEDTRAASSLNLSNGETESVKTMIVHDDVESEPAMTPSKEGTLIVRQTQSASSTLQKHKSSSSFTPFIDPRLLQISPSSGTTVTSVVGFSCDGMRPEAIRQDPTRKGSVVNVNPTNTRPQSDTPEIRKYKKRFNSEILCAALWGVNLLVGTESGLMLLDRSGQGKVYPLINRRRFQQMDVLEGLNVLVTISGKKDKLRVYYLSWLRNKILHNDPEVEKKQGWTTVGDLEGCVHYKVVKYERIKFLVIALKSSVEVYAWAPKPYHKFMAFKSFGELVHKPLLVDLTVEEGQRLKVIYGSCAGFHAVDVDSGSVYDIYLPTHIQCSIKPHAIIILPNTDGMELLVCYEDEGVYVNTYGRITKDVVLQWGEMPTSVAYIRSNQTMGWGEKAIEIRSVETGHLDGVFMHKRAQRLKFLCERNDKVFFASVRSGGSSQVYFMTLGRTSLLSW

HTM [38] = experiment: Induction of F-actin depolymerization in human HTM cells at 1 to 5 uM incubated for 4 hrs by rhodamine-phalloidin staining based analysis; format: cell-based; settings: dose 1-5 µM
HTM [39] = experiment: Induction of morphological changes in human HTM cells assessed as appearance of cell contraction at 45 uM incubated for 10 hrs by light microscopic analysis; format: functional, cell-based
HTM [40] = experiment: Induction of morphological changes in human HTM cells assessed as appearance of cell contraction at 15 uM incubated for 10 hrs by light microscopic analysis; format: functional, cell-based
HTM [41] = experiment: Induction of morphological changes in human HTM cells at 0.1 uM incubated for 10 hrs in presence of eFT508 by light microscopic analysis; format: functional, cell-based
[42] = target: T2, Rho-associated protein kinase 2; experiment: Inhibition of ROCK2 (unknown origin) relative to control; settings: concentration not given here
Target sequence in this assay (O75116 whole entry, looked up): as the sequence (O75116 whole entry) above

[43] = target: T1, MAP kinase-interacting serine/threonine-protein kinase 1; experiment: Inhibition of MNK1 (unknown origin) preincubated for 10 mins followed by substrate addition and measured after 60 mins by ADP-glo kinase assay
Target sequence in this assay (Q9BUB5 whole entry): as the sequence (Q9BUB5 whole entry, looked up) above

| Structure (SMILES) | inhibition (HTM [1]) | Activity (Oryctolagus cuniculus [2]) | Activity (Oryctolagus cuniculus [3]) | Activity (HTM [4]) | inhibition (HTM [6]) | Activity [7] | Activity (Mitochondrial membrane) | inhibition (HTM [9]) | Activity (Oryctolagus cuniculus [10]) | Activity (Oryctolagus cuniculus [14]) | inhibition (HTM [15]) | inhibition (HTM [19]) | Activity [21] | Activity [22] | IC50 [23] | Activity (HTM [29]) | Activity (HTM [31]) | Activity (HTM [32]) | inhibition (HTM [33]) | inhibition (HTM [35]) | further results |
| --- | --- | --- | --- | --- | --- | --- | --- | --- | --- | --- | --- | --- | --- | --- | --- | --- | --- | --- | --- | --- | --- |
| Cc1ccc(C(=O)OCc2ccc([C@@H](CN)C(=O)Nc3ccc4cnccc4c3)cc2)c(C)c1 | Active | 4.7 mmHg | 9.5 mmHg | Active | Active | 43.02% | inactive | Active | 3.55 mmHg | 8.16 mmHg | Active |  |  |  |  |  |  |  |  |  | Activity (HTM [5]): Active; Activity (HTM [8]): Active; Activity [11]: 80%; Activity [12]: Toxic; Activity [13]: Toxic; Activity [16]: 60% |
| COc1cccc(CN2CCC(c3cc(-c4ccnc5[nH]ccc45)[nH]n3)CC2)c1 | Active | 0.22 mmHg | 5.01 mmHg |  | Active | 34.32% | Active |  | 0.89 mmHg |  | Active | Active | Non-toxic | Non-toxic | 0.0967 µM | Active | Minimal_effect; Compound Induced Minimal Changes In Cell Morphology | Active | inactive | Active | inhibition [17]: < 55%; inhibition [18]: < 55%; inhibition [20]: 61.6%; inhibition [24]: 89%; inhibition [25]: < 50%; inhibition (Homo sapiens [26]): < 50%; inhibition (Homo sapiens [27]): 70%; inhibition [28]: < 50%; inhibition [30]: 64.7%; inhibition [34]: 85%; IC50 [36]: 0.123 µM; inhibition [37]: < 55%; Activity (HTM [38]): Active; Activity (HTM [39]): Active; Activity (HTM [40]): Active; Activity (HTM [41]): Active |
| c1cc(-c2cc(C3CCNCC3)n[nH]2)c2cc[nH]c2n1 | Active | 2.56 mmHg |  |  | Active | 36.77% | inactive |  | 5 mmHg | 9.38 mmHg | Active | Active | Non-toxic | Non-toxic | 0.0338 µM | Active | Minimal_effect; Compound Induced Minimal Changes In Cell Morphology | Active | inactive | Active | inhibition [42]: 98%; IC50 [36]: 0.0472 µM; IC50 [43]: 0.0472 µM; Activity (HTM [39]): Active; Activity (HTM [40]): Active |
| C[C@H]1CNCCCN1S(=O)(=O)c1cccc2cncc(F)c12 | Active |  |  | Active | Active | 39.46% | inactive | inactive |  |  | Active |  |  |  |  |  | Active |  |  |  |  |
